Type in all cases: cell-based
The test system of one assay is E. coli. The assay is described as follows: Bacterial growth in absorbent cores (method 4), E. coli. Here is the method:
(§1) 16 ml (corresponding to a maximum absorption capacity of a test specimen according to method 1) of test liquid 1 containing the bacteria were added to a test specimen placed in plastic tubs, and a lid was fitted on the tubs. The tubs were turned upside down and incubated in a warm cabinet at 35° C. After incubation for 0, 6 and 12 hours, the test samples were placed in a plastic bag with peptone water and the content was homogenized (agitated and worked up) in a stomacker for 3 minutes. The homogenate was diluted in dilution tubes with peptone water and a microbiological culture was spread on agar plates. Slanetz Bartley agar was used for E. faecalis, and Drigalski agar for E. coli and P. mirabilis. The specimens were incubated at 35° C. for 1-2 days before the colonies were counted and the log CFU/ml calculated. Control tests were also carried out with absorbent cores without NaCl.
(§2) Bacteria were cultured in nutrient broth and diluted to the desired concentration of about Log 3.3 in test liquid 1 (method 4). Absorbent test specimens were produced according to method 1. […] The bacterial growth was measured according to method 4.
(§3) Absorbent cores were produced according to method 1. […] The bacterial growth of E. coli, P. mirabilis and E. faecalis was measured after 0, 6 and 12 hours according to method 4. […]

The test system of a further assay is P. mirabilis. The assay is described as follows: Bacterial growth in absorbent cores (method 4), P. mirabilis. Here is the method:
as §1, §2, §3

The test system of another assay is E. faecalis. As to the kind of experiment: Bacterial growth in absorbent cores (method 4), E. faecalis. Here is the method: as §1, §2, §3
The next assay deals with Proteus mirabilis. As to the kind of experiment: Ammonia formation in absorbent cores (method 3). The following applies: Example 2, FIG. 5; specimen containing 29% by weight of NaCl; after 6 and 8 hours. Here is the method:
Absorbent test specimens were produced according to method 1. A bacterial suspension of Proteus mirabilis was cultured in nutrient solution at 30° C. overnight. The grafted cultures were diluted with test liquid 1 and the quantity of bacteria was determined. The final culture contained approximately 10^5 organisms per ml of test liquid. The absorbent core was placed in a plastic tub and test liquid 1 containing bacteria was added to the absorbent core, after which the container was incubated at 35° C. for 4, 6 and 8 hours, and then the specimens were removed from the container using a hand pump and a so-called Drager tube. The ammonia content was obtained as a color change on a scale graduated in ppm or percent by volume.
Absorbent test specimens were produced according to method 1. 16 ml, maximum absorption capacity, of test liquid 1 containing bacteria were added to a test specimen. 29 (high), 22 (medium) and 12 (low) % by weight of NaCl (% dry) and 22 (medium) % by weight of CaCl2 (% dry) were added to the core. The quantity of developed ammonia was measured according to method 3 after 6 and 8 hours. […]
Absorbent test specimens were produced according to method 1. […] The quantity of added pH-reducing substance was 5% by weight of the pulp. […] The quantity of developed ammonia was measured according to method 3 after 6 and 8 hours.

The mark [1] stands for this setting: 3% added salt (% wet) = 29% by weight (% dry), NaCl high in FIG. 4, 12 hours, 35° C., 16 ml test liquid 1 (maximum load), start about Log 3.3, method counts log CFU/ml.
Setting [2] is: Example 1, FIG. 4, 29, 22 and 12% by weight NaCl (% dry), after 6 and 12 hours, inhibition better with higher salt content.

Structures are written as SMILES.

`[Cl-].[Na+]` [NaCl]: the “growth of E. coli after 12 hours” value with E. coli (setting [1]) is listed as less than 5.5 log. Moreover, the “growth of E. coli compared with the control tests” value in the assay with E. coli (setting [2]) is “lower”. Also, the “growth of P. mirabilis after 12 hours” value with P. mirabilis (setting [1]) is less than 5.5 log. For the same compound, the “growth of P. mirabilis compared with the control tests” value in the assay on P. mirabilis (setting [2]) is given as “lower”. The “growth of E. faecalis after 12 hours” value with E. faecalis (setting [1]) is given as less than 5.5 log. In addition, in the assay on E. faecalis (setting [2]), the “growth of E. faecalis compared with the control tests” value is “lower”. The “development of NH3, ranking among the specimens” value in the assay on Proteus mirabilis was “lowest development of NH3”.
